Test results as given in US8859818B2, “Electrophotographic photoreceptor” (Takasago International Corporation, priority 2010, dated 2014).

How the values were obtained:
[1] = solubility in tetrahydrofuran; type: physicochemical; settings: 25° C., weight dissolved completely in 1 g tetrahydrofuran
Procedure: Each of the Exemplified Compounds (1-1) and (1-2) was dissolved in 1 g of tetrahydrofuran at 25° C.
Experiments were conducted by using Comparative Compounds (3) to (5) in the same manner as in Example 8.

[2] = dissolution in binder polymer solution for film formation; type: physicochemical
Procedure: Into 85 parts by weight of tetrahydrofuran, 15 parts by weight of “Panlite TS-2020” (manufactured by Teijin Chemicals Ltd.) and 15 parts by weight of Compound (1-1) were dissolved by mixing. The solution was applied by using a doctor blade onto a sheet in which aluminum was vapor deposited on a polyethylene […] (PET) film, followed by drying at 80° C. for 3 hours. Thus, a charge transport layer was formed (thickness: 18 μm). Further, a translucent gold electrode was vapor deposited on this charge transport layer, and the charge carrier mobility was measured. For the measurement of the carrier mobility, a nitrogen gas laser having a pulse half width of […] and a wavelength of 337 nm was used as a light source, and the time-of-flight method (Toshiaki Tanaka, Yasuhiro Yamaguchi and Masaaki Yokoyama, Denshi Shashin (Electrophotography), 29, 366 (1990)) was employed. Table 1 and FIG. 1 show the results measured at 25° C. and 25 V/μm.
Experiments were conducted by using Comparative Compounds (1) to (6) in the same manner as in Example 1. […] Note that it was impossible to measure the mobility of Comparative Compounds (3) to (5) because of their insolubility.
Into 8 parts by weight of tetrahydrofuran, 1 part by weight of a polycarbonate “Z-200” (manufactured by Mitsubishi Engineering-Plastics Corporation) and 1 part by weight of Compound (1-1) or (1-2) were dissolved by mixing. The liquid was applied onto the charge generation layer, followed by drying at 80° C. for 2 hours, to thereby form a charge transport layer (thickness: approximately 20 μm). Thus, each electrophotographic photoreceptor was prepared.
Experiments were conducted by using Comparative Compounds (2) to (6) in the same manner as in Example 4. […] Note that it was impossible to measure the electrophotographic characteristics of Comparative Compounds (3) to (5) because of their insolubility.
Into 85 parts by weight of tetrahydrofuran, 15 parts by weight of “Panlite TS-2020” and 15 parts by weight of Compound (1-1) or (1-2) were dissolved by mixing. This liquid was applied onto a PET plate by using a doctor blade, followed by drying at 80° C. for 3 hours. Thus, a thin film was prepared (thickness: approximately 20 μm).
Experiments were conducted by using Comparative Compounds (3) to (5) in the same manner as in Example 6. […] Note that it was impossible to perform measurement of Comparative Compounds (3) to (5) because of their insolubility.

[3] = 1 part polycarbonate Z-200, 1 part compound, 8 parts tetrahydrofuran
[4] = 15 parts Panlite TS-2020, 15 parts compound, 85 parts tetrahydrofuran

| SMILES | Solubility [1] | melting point | dissolution in binder polymer solution [2, 3] | dissolution in binder polymer solution [2, 4] |
| --- | --- | --- | --- | --- |
| Cc1ccccc1/C=C/c1ccc(N(c2ccc(/C=C/c3ccccc3C)cc2)c2ccc(/C=C/c3ccccc3C)cc2)cc1 [Comparative Compound (4)] | 0.02 g/g tetrahydrofuran |  | not successfully dissolved | not successfully dissolved |
| COc1ccc(/C=C/c2ccc(N(c3ccc(/C=C/c4ccc(OC)cc4)cc3)c3ccc(/C=C/c4ccc(OC)cc4)cc3)cc2)cc1 [Comparative Compound (5)] | 0.10 g/g tetrahydrofuran |  | not successfully dissolved | not successfully dissolved |
| Cc1ccc(/C=C/c2ccc(N(c3ccc(/C=C/c4ccc(C)cc4)cc3)c3ccc(/C=C/c4ccc(C)cc4)cc3)cc2)cc1 [Comparative Compound (3)] | 0.08 g/g tetrahydrofuran |  | not successfully dissolved | not successfully dissolved |

Second part, the compound after the results:

| Solubility [1] | melting point | dissolution in binder polymer solution [2, 3] | dissolution in binder polymer solution [2, 4] | SMILES |
| --- | --- | --- | --- | --- |
| 0.40 g/g tetrahydrofuran | 98 to 99 °C |  |  | Cc1cccc(C=Cc2ccc(N(c3ccc(C=Cc4cccc(C)c4)cc3)c3ccc(C=Cc4cccc(C)c4)cc3)cc2)c1 [Compound (1-1)] |
| 0.45 g/g tetrahydrofuran | 145 to 146 °C |  |  | COc1cccc(C=Cc2ccc(N(c3ccc(C=Cc4cccc(OC)c4)cc3)c3ccc(C=Cc4cccc(OC)c4)cc3)cc2)c1 [Compound (1-2)] |
